# Results from article PMC4914611 (Nature nanotechnology, 2013).
# Target: CM11CD746~1R~TET (Chara corallina, UniProt Q9SSU1)
# Conditions: actin filaments; 25 mM imidazole, 25 mM KCl, 1 mM EGTA, 2 mM free Mg2+
# Chain of CM11CD746~1R~TET (Q9SSU1 1-746): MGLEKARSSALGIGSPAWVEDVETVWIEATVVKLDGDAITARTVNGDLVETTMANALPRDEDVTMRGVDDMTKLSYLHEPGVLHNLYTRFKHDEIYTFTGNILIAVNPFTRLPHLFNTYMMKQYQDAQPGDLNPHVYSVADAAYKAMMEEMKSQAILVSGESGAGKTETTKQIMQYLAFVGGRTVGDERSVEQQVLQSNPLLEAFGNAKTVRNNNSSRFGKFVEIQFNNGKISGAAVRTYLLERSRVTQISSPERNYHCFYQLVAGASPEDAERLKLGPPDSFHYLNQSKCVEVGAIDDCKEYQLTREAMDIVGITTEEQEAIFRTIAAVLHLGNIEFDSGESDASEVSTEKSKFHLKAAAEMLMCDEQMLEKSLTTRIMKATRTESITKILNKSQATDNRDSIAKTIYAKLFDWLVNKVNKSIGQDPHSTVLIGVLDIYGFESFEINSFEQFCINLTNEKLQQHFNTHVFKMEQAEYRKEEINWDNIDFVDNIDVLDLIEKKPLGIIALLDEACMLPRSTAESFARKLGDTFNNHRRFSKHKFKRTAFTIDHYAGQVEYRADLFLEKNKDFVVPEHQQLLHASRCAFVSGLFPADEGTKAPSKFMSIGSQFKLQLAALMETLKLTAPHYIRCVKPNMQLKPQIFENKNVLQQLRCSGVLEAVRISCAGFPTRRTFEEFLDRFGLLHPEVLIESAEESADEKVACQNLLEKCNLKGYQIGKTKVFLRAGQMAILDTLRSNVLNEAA
smiles,measurement,value
Nc1ncnc2c1ncn2[C@@H]1O[C@H](COP(=O)(O)OP(=O)(O)OP(=O)(O)O)[C@@H](O)[C@H]1O [ATP],"single-molecule fluorescence tracking, run length and velocity vs [ATP]",velocities are shown (mean ± s.e.m.) as a function of [ATP]
